These are literature values, as cited in the CATMoS acute toxicity set (Mansouri et al. 2021).

As a reminder, the LD50 is the dose expected to kill half of the subjects tested.

“And” between values parts separate entries of the source, which are not always exact repeats. Equal entries are not always repeated.

A short description of this series: rat acute oral toxicity. The following applies: in vivo. The source says: […]The data set underlying the modeling effort for this project was initially compiled by NICEATM and U.S. EPA’s CCTE. Briefly, LD50 data were collected from rat acute oral systemic toxicity tests, including limit tests, ranges/confidence intervals, and discrete LD50 values. The full data set included 21,200 LD50 entries for 15,688 substances. […] Data were reviewed to ensure that LD50 values with obvious errors in the extracted data such as unit conversion errors (e.g., comma and decimal separator misplacements) were either fixed or removed. After this review, 16,209 LD50 values remained. Many of the chemicals represented had multiple LD50 entries, requiring that a single representative value per Chemical Abstracts Service Registry Number (CASRN) identifier be defined to facilitate modeling efforts. Based on ATWG feedback and to define the representative LD50 as a protective value while accounting for the distribution across multiple LD50s, the median of the lowest quartile was computed using only discrete LD50 values (omitting limit test data and range and confidence interval data). A detailed summary of the data compilation is available online on the NICEATM webpage dedicated to the collaborative modeling project (NTP 2020).
[…][…] For categorical designations, limit test and range/confidence interval LD50 data were integrated wherever possible. As such, the number of chemicals with end point values/calls varies across the modeling end points (Table 3) based on whether chemicals had representative LD50 values and/or other data. If a chemical had both, the representative value was used to determine categorical calls rather than limit test data. Some data were useable only for certain end points and categories depending on the thresholds. For example, ranges that spanned multiple hazard categories were considered only for the binary (very toxic/nontoxic) end points and omitted from rendering a determination for hazard category assignment.
[…]The final data set comprising 11,992 chemicals was split into training and evaluation sets […], respectively. This process was performed semirandomly by ordering chemicals based on the five end points (categorical and continuous LD50 values) and partitioning every fourth record into the evaluation set accordingly. This approach was taken to ensure an equivalent distribution of the LD50 values and the different hazard categories between the training and the evaluation sets without supervised sampling of the chemicals based on structures (Figure 1A). The sources of the chemical structures were also kept equivalent between the two sets, with chemical structures obtained from DSSTox, being the highest quality, representing over 75% of each set (Figure 1B).
Take `CCOP(=O)(OCC)OC(=C(Cl)Cl)c1cc(Cl)cc(Cl)c1`: the median lethal dose (LD50) is 20 mg/kg.

For `Nc1nc2cc(F)ccc2o1`, the LD50 is 1000 mg/kg. Take `Cc1ccc(C(=O)CC(=O)C(F)(F)F)cc1`: the LD50 was 300 mg/kg. On to `C#CCOP(=O)(OCC(C)C)c1ccccc1` (configuration not stated), for which the LD50 was 600 mg/kg. With `CCN1CCC(=C2c3ccccc3CCc3ccccc32)C1C` (configuration not stated), the LD50 was 600 mg/kg.

`CC(C)CC(=O)OCCc1ccccc1`: the LD50 is 6220 mg/kg. Turning to `COP(=O)(OC)OC(=C(Br)Br)c1ccc(Cl)cc1Cl`, the LD50 is 180 mg/kg.

With `CCCCCCCCCCCCOC(=O)Cc1ccc(N(CCCl)CCCl)cc1`, the LD50 is 72 mg/kg. For the compound `Fc1c(Br)c(Br)c2nc(C(F)(F)F)[nH]c2c1Br`, the LD50 was 9.64 mg/kg. On to `CCC(C)CO` (configuration not stated), for which the LD50 is 4170 mg/kg. Regarding `O=C(O)c1c(Cl)ccc2cc(Cl)cnc12`, the 50% lethal dose (LD50) is 2190 mg/kg. `CCC(C(=O)O)c1ccc(N2Cc3ccccc3C2=O)cc1` (configuration not stated): the LD50 was 373 mg/kg. Take `CC[C@@]1(O)C[C@H](O[C@H]2C[C@H](N(C)C)[C@H](O[C@H]3C[C@H](O)[C@H](O[C@H]4CCC(=O)[C@H](C)O4)[C@H](C)O3)[C@H](C)O2)c2c(cc3c(c2O)C(=O)c2c(O)cccc2C3=O)[C@H]1C(=O)OC`: the LD50 was 58.6 mg/kg. For the compound `CCC1(c2ccccc2)CCNC1=O` (configuration not stated), the LD50 is 990 mg/kg. Consider `COc1ccccc1C=Nc1ccccc1C(=O)O`, for which the LD50 was 1500 mg/kg. As to `C#CCCl`, the LD50 was 165 mg/kg.

As to `COc1cccc2c1cc([N+](=O)[O-])c1c(C(=O)O)cc3c(c12)OCO3`, the LD50 was 184 mg/kg. With `Cc1cc(O)c(C(C)(C)C)cc1Sc1cc(C(C)(C)C)c(O)cc1C`, the LD50 is 2340 mg/kg. For the compound `CC1CC(C)(C)CC(OOC(C)(C)C)(OOC(C)(C)C)C1` (configuration not stated), the LD50 was 12900 mg/kg.

On to `ClC(COCC(Cl)C(Cl)(Cl)Cl)C(Cl)(Cl)Cl` (configuration not stated), for which the LD50 was 3630 mg/kg. On to `Nc1ccc(F)c(F)c1F`, for which the LD50 was 699 mg/kg.

On to `COc1ccc(OC)cc1`, for which the LD50 was 3600 mg/kg.

Regarding `O=C1N(Cl)C2C(N1Cl)N(Cl)C(=O)N2Cl` (configuration not stated), the LD50 is 2150 mg/kg.

In the case of `Cc1ncc2c(c1O)CSSC2`, the LD50 was 1110 mg/kg. With `Cc1cc(C)nc(Nc2ccccc2)n1`, the LD50 was 4150 mg/kg. On to `C[C@]12CCC(=O)C=C1[C@@H]1C[C@@H]1[C@@H]1[C@@H]2CC[C@@]2(C)[C@H]1CC[C@@]2(O)CCC(=O)O`, for which the LD50 was 1400 mg/kg. On to `FC(F)(F)c1nc2c(Cl)c(Cl)c(Cl)c(Cl)c2[nH]1`, for which the LD50 is 0.245 mg/kg. Regarding `CCCCNC(=N)NC(=N)N`, the LD50 is 320 mg/kg. In the case of `CCOP(=S)(OCC)SCn1nc(-c2ccccc2)ccc1=O`, the LD50 is 555 mg/kg. As to `CCCCOCCCOC(=O)COc1ccc(Cl)cc1Cl`, the LD50 was 500 mg/kg. Consider `CN1CCC[C@@H]1CCO[C@](C)(c1ccccc1)c1ccc(Cl)cc1`, for which the LD50 was 3550 mg/kg. `COc1c2occc2c(OC)c2c(=O)cc(C)oc12`: the LD50 was 68.8 mg/kg. On to `Clc1cccc2c1Oc1c(Cl)c(Cl)c(Cl)c(Cl)c1O2`, for which the LD50 is 0.206 mg/kg. Take `O=C(OC1CC2NC(C1)C1OC21)C(CO)c1ccccc1` (configuration not stated): the 50% lethal dose (LD50) was 3020 mg/kg. On to `O=C(Cl)c1ccccc1C(F)(F)F`, for which the LD50 is 8200 mg/kg.

Turning to `NC(=O)c1cc2cc(CN3CCCCC3)ccc2o1`, the LD50 was 250 mg/kg. As to `COc1ccc2c(=O)oc3c(OC)cc(CCN(C)C)c4c(=O)oc1c2c34`, the LD50 is 518 mg/kg. Regarding `CCNC(C)CN1CCc2c(c(=O)oc3ccccc23)C1` (configuration not stated), the LD50 is 300 mg/kg. With `CNC(=O)C(C)SCCSP(=O)(OC)OC` (configuration not stated), the LD50 was 64 mg/kg.

With `CN1CC[C@@]2(C)c3cc(OC(=O)NCCCCCCCCCCN4CCCCC4)ccc3N(C)[C@@H]12`, the LD50 was 15.3 mg/kg. Consider `COc1c(O)cc(Cl)c(Cl)c1Cl`, for which the LD50 was 2980 mg/kg. On to `Nc1ccc(S(=O)(=O)Nc2ccc(NC(=O)CCC(=O)O)cc2)cc1`, for which the LD50 was 1500 mg/kg.

`COCN(C)N=O`: the median lethal dose (LD50) is 700 mg/kg.

For `CCCCCCCCCCCCCCCCOC(=O)C1CC1`, the LD50 was 12200 mg/kg. Turning to `C1=CC=CCC=C1`, the LD50 was 57 mg/kg. For `CCC(C)NC(=S)C(=S)NC(C)CC` (configuration not stated), the LD50 was 6 mg/kg.

For `c1ccc(C2(c3ccccc3)COC(c3ccccc3)(C3CCCCN3)OC2)cc1` (configuration not stated), the LD50 is 300 mg/kg.

`CCCCCCC#CC(=O)OC`: the LD50 was 2220 mg/kg. Consider `CC(=O)c1ccccc1Cl`, for which the LD50 is 1820 mg/kg. Take `CN(C)[SiH](N(C)C)N(C)C`: the median lethal dose (LD50) was 594 mg/kg.

For the compound `Cn1c(=O)c2c(ncn2CCCCCN2CCN(c3ccc(Cl)cc3)CC2)n(C)c1=O`, the LD50 was 353 mg/kg. For the compound `Nc1cc(S(=O)(=O)O)c2cccc(S(=O)(=O)O)c2c1`, the LD50 was 11400 mg/kg.

On to `ClCc1cccnc1`, for which the LD50 is 316 mg/kg. `C=CCOC=O`: the LD50 was 124 mg/kg. As to `C#CC(C)(C)NC(=O)C=Cc1cc(OC)c(OC)c(OC)c1`, the LD50 was 570 mg/kg.

Regarding `CC(=O)OC(C(Cl)(Cl)Cl)P(=O)(Oc1ccccc1)Oc1ccccc1` (configuration not stated), the LD50 is 3280 mg/kg. For `CCN(CC)CCNc1ccc(CO)c2sc3ccccc3c(=O)c12`, the LD50 is 980 mg/kg. As for `CCCOP(=O)(OC=C(Cl)Cl)OCCCl` (configuration not stated), the 50% lethal dose (LD50) was 25 mg/kg.

Take `O=C(O)CSc1cc(Cl)ccc1Cl`: the LD50 is 1900 mg/kg.

With `O=C(O)C[C@H](NC(=O)COc1ccc(Cl)cc1Cl)C(=O)O`, the 50% lethal dose (LD50) was 1000 mg/kg.

On to `Clc1cccc(N2CCNCC2)n1`, for which the LD50 is 174 mg/kg. Turning to `OC(c1ccccc1)(c1ccc(Cl)cc1)C1CCCCN1` (configuration not stated), the LD50 is 400 mg/kg. For `O=C(O)c1c(Cl)ccc(Cl)c1O`, the LD50 was 1560 mg/kg.

Take `CCCCC(O)c1ccccc1` (configuration not stated): the LD50 is 5430 mg/kg. On to `CCCCCCCCC(CC=CCl)CCCN` (configuration not stated), for which the LD50 is 1320 mg/kg. Consider `COc1cc2c3cc1Oc1cc(ccc1O)C[C@@H]1c4c(cc(OC)c(O)c4Oc4ccc(cc4)C[C@@H]3N(C)CC2)CC[N+]1(C)C`, for which the 50% lethal dose (LD50) is 28 mg/kg.

As to `CC=C(CC)C(=O)NC(N)=O`, the LD50 is 2500 mg/kg. For the compound `Cc1cc(N)ccc1N`, the LD50 was 98 mg/kg and 102 mg/kg. Regarding `COc1ccc2c(c1)OC(C)(C)[C@H](c1ccccc1)[C@H]2c1ccc(OCCN)cc1`, the LD50 is 500 mg/kg.

As for `Cn1cc(OCC(O)CNC(C)(C)C)c2ccccc2c1=O` (configuration not stated), the LD50 is 145 mg/kg.

Consider `O=C(CCCN1CCN2Cc3[nH]c4ccccc4c3CC2C1)c1ccc(F)cc1` (configuration not stated), for which the LD50 is 700 mg/kg. Turning to `Cn1c(=N)oc2ccc(Cl)cc21`, the LD50 is 1000 mg/kg.

In the case of `C=CCNC(=O)ON=C1SCOC1C` (configuration not stated), the median lethal dose (LD50) was 453 mg/kg.

For `CN(C(=O)CN(CCO)CC(=O)N(C)C(C)(C)Cc1ccccc1)C(C)(C)Cc1ccccc1`, the LD50 was 1000 mg/kg and 675 mg/kg. As to `Cc1cc(-c2ccc(/N=N/c3c(N)c(C)cc(S(=O)(=O)O)c3N)c(C)c2)ccc1/N=N/c1ccc(O)c(C(=O)O)c1`, the LD50 is 6830 mg/kg.

Turning to `CN1[C@@H]2CC[C@H]1C[C@@H](OC(c1ccccc1)c1ccccc1)C2`, the LD50 was 940 mg/kg. Take `CCOP(=S)(OCC)SCn1c(=O)oc2ccccc21`: the LD50 was 81 mg/kg. On to `CCC(=O)O[C@@H]1CC(=O)O[C@H](C)C/C=C/C=C/[C@H](O)[C@H](C)C[C@H](CC=O)[C@H](O[C@@H]2O[C@H](C)[C@@H](O[C@H]3C[C@@](C)(O)[C@@H](OC(=O)CC)[C@H](C)O3)[C@H](N(C)C)[C@H]2O)[C@H]1OC`, for which the LD50 was 9600 mg/kg.

As to `c1cc2c(cc1CCC(CCc1ccc3c(c1)OCO3)N1CCCC1)OCO2`, the median lethal dose (LD50) is 565 mg/kg.

With `CNC(=O)ON=C1CSCCSC1`, the median lethal dose (LD50) was 400 mg/kg. As for `CCCCCCCC/C=C\CCCCCCCC(=O)N(C)CCS(=O)(=O)O`, the LD50 is 1700 mg/kg.

`CC=Cc1ccc(OP(=S)(OC)OC)c(OC)c1`: the LD50 was 250 mg/kg. On to `CC(=O)OCC(C)O` (configuration not stated), for which the LD50 was 18000 mg/kg. In the case of `C=Cc1ccc(Cl)cc1`, the LD50 is 5200 mg/kg. `CC(C)N=C1SC(=NOC(=O)N(C)SC(Cl)(Cl)Cl)C(C)(C)S1`: the LD50 is 226 mg/kg.

On to `CC(c1ccccc1)c1ccc(O)cc1O` (configuration not stated), for which the LD50 was 500 mg/kg. Take `CC1(C)C(C=C(Br)Br)C1C(=O)OC(C#N)c1cccc(Oc2ccccc2)c1` (configuration not stated): the LD50 is 80 mg/kg. In the case of `COc1ccc2c3c1O[C@H]1[C@@H](O)C=C[C@H]4[C@@H](C2)N(C)CC[C@@]341`, the LD50 is 85 mg/kg. Turning to `COc1c(C(C)(C)C)cc([N+](=O)[O-])c(C)c1[N+](=O)[O-]`, the LD50 is 339 mg/kg. `CC=Cc1ccc(OCC)c(O)c1`: the LD50 is 2400 mg/kg.

In the case of `NC(=O)C1CCN(CCCN2c3ccccc3Sc3ccc(Cl)cc32)CC1`, the median lethal dose (LD50) was 620 mg/kg. As for `CCCCc1c(C)nc2cccc(C)n2c1=O`, the LD50 is 1100 mg/kg.

For `CC1=NN(c2ccccc2)C(=O)C1`, the LD50 is 1920 mg/kg. On to `CC(C)CCCCCCCCCCO`, for which the LD50 was 17000 mg/kg.

On to `CC(Cc1ccc(C(C)(C)C)cc1)CN1C[C@@H](C)O[C@@H](C)C1` (single isomer, unassigned), for which the median lethal dose (LD50) is 3540 mg/kg. For `O=C(Nc1nc2ccc([N+](=O)[O-])cc2s1)c1ccc([N+](=O)[O-])cc1`, the LD50 was 1500 mg/kg. Take `COc1nccc(C(F)(F)F)c1S(=O)(=O)Cl`: the median lethal dose (LD50) is 3130 mg/kg.
